Data as given in paper PMC9826432 (Environmental Toxicology and Chemistry, 2022).

How the values were obtained:
[1] = biological target: T1, human estrogen receptor α (ERα) (Homo sapiens, UniProt P03372); assay: lyticase Yeast Estrogen Screen; assay type: cell-based; settings: L‐YES; based on PC10 values, 3 replicates, considering molecular weights
T1 sequence (P03372 1-595): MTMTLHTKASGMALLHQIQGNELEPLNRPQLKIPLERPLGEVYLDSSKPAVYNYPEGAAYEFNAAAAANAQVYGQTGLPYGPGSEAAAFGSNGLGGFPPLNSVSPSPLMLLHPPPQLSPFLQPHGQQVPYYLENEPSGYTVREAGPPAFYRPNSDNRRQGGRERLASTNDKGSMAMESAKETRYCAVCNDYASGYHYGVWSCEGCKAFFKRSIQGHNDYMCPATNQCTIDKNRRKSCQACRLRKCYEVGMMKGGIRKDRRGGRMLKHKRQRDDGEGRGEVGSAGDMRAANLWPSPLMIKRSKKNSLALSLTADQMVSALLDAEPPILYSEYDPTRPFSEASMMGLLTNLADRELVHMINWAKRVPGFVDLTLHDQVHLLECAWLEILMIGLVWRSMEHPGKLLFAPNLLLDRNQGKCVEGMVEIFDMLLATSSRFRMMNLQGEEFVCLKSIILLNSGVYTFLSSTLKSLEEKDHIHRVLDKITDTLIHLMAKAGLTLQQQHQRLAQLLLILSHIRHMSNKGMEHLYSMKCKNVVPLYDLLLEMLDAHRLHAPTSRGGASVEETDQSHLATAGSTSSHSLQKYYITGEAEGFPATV

[2] = biological target: T1, human estrogen receptor α (ERα); assay: ERα‐CALUX human cell-based reporter gene assay; settings: based on PC10 values, 3 replicates, considering molecular weights
[3] = tested on: aquatic organisms; settings: threshold for effluents, tenfold dilution assumed; ref Loos et al., 2018; cited from earlier work

Row | SMILES | REP (relative estrogenic potency in comparison to 17β‐estradiol) [1] | REP (relative estrogenic potency in comparison to 17β‐estradiol) [2] | 10× diluted PNEC [3] [ng/L]
1 | CC(C)(c1ccc(O)cc1)c1ccc(O)cc1 [BPA, bisphenol A] | 4.5E−05 | 4.2E−05 | –
2 | C#C[C@]1(O)CC[C@H]2[C@@H]3CCc4cc(O)ccc4[C@H]3CC[C@@]21C [EE2, 17α‐ethinylestradiol] | – | – | 0.35
